# Results from the NIST ThermoML archive (doi:10.1021/je5009334).
# “And” between values parts separate entries of the source, which are not always exact repeats. Equal values may be shown once. Numbers after ± are expanded uncertainties.
# Tests used:
# [1] = 101 kPa, Liquid; for speed of sound: Sing-around technique in a fixed-path interferometer; for mass density: Vibrating tube method
# [2] = xn = mol fraction of the nth substance listed; settings: 101 kPa, Liquid; for speed of sound: Sing-around technique in a fixed-path interferometer; for mass density: Vibrating tube method
SMILES,speed of sound ([1]; 298.15 K) [m/s],mass density ([1]; 298.15 K),speed of sound ([1]; 303.15 K),mass density ([1]; 303.15 K),speed of sound ([1]; 308.15 K) [m/s],mass density ([1]; 308.15 K),speed of sound ([1]; 313.15 K),mass density ([1]; 313.15 K),speed of sound ([1]; 318.15 K),mass density ([1]; 318.15 K),speed of sound ([1]; 323.15 K),mass density ([1]; 323.15 K),other results
"CCC(O)CO (stereo not drawn) [1,2-butanediol]",1452.6 ± 1.3,998.509 ± 0.23 kg/m3 and 998.492 ± 0.23 kg/m3,1438.2 ± 1.3 m/s and 1437.7 ± 1.3 m/s,994.744 ± 0.23 kg/m3 and 994.719 ± 0.23 kg/m3 and 994.759 ± 0.23 kg/m3,1423.6 ± 1.3,990.956 ± 0.23 kg/m3 and 990.971 ± 0.23 kg/m3,1409.2 ± 1.3 m/s and 1408.5 ± 1.3 m/s and 1409.1 ± 1.3 m/s,987.136 ± 0.23 kg/m3 and 987.113 ± 0.23 kg/m3 and 987.152 ± 0.23 kg/m3,1394.6 ± 1.2 m/s and 1394 ± 1.2 m/s and 1394.5 ± 1.2 m/s,983.284 ± 0.23 kg/m3 and 983.257 ± 0.23 kg/m3 and 983.297 ± 0.23 kg/m3,1380 ± 1.2 m/s and 1379.6 ± 1.2 m/s and 1379.9 ± 1.2 m/s,979.394 ± 0.23 kg/m3 and 979.371 ± 0.23 kg/m3 and 979.406 ± 0.23 kg/m3,–
"CCC(O)CO (stereo not drawn) [1,2-butanediol] + CC(O)CCO",–,–,–,–,–,–,–,–,–,–,–,–,"speed of sound ([2]; 298.15 K, x1 = 1): 1452.6 ± 1.3 m/s; mass density ([2]; 298.15 K, x1 = 1): 998.509 ± 0.23 kg/m3; speed of sound ([2]; 303.15 K, x1 = 1): 1438.2 ± 1.3 m/s; mass density ([2]; 303.15 K, x1 = 1): 994.759 ± 0.23 kg/m3; speed of sound ([2]; 308.15 K, x1 = 1): 1423.6 ± 1.3 m/s; mass density ([2]; 308.15 K, x1 = 1): 990.971 ± 0.23 kg/m3; speed of sound ([2]; 313.15 K, x1 = 1): 1409.1 ± 1.3 m/s; mass density ([2]; 313.15 K, x1 = 1): 987.152 ± 0.23 kg/m3; speed of sound ([2]; 318.15 K, x1 = 1): 1394.5 ± 1.2 m/s; mass density ([2]; 318.15 K, x1 = 1): 983.297 ± 0.23 kg/m3; speed of sound ([2]; 323.15 K, x1 = 1): 1379.9 ± 1.2 m/s; mass density ([2]; 323.15 K, x1 = 1): 979.406 ± 0.23 kg/m3"
"CCC(O)CO (stereo not drawn) [1,2-butanediol] + OCCc1ccccc1",–,–,–,–,–,–,–,–,–,–,–,–,"speed of sound ([2]; 298.15 K, x2 = 0): 1452.6 ± 1.3 m/s; mass density ([2]; 298.15 K, x2 = 0): 998.509 ± 0.23 kg/m3; speed of sound ([2]; 303.15 K, x2 = 0): 1437.7 ± 1.3 m/s; mass density ([2]; 303.15 K, x2 = 0): 994.719 ± 0.23 kg/m3; speed of sound ([2]; 308.15 K, x2 = 0): 1423.6 ± 1.3 m/s; mass density ([2]; 308.15 K, x2 = 0): 990.971 ± 0.23 kg/m3; speed of sound ([2]; 313.15 K, x2 = 0): 1408.5 ± 1.3 m/s; mass density ([2]; 313.15 K, x2 = 0): 987.113 ± 0.23 kg/m3; speed of sound ([2]; 318.15 K, x2 = 0): 1394 ± 1.2 m/s; mass density ([2]; 318.15 K, x2 = 0): 983.257 ± 0.23 kg/m3; speed of sound ([2]; 323.15 K, x2 = 0): 1379.6 ± 1.2 m/s; mass density ([2]; 323.15 K, x2 = 0): 979.371 ± 0.23 kg/m3"
"CC(O)CCO (stereo not drawn) [1,3-butanediol]",1527.8 ± 2.1,1001.82 ± 0.84 kg/m3,1514.1 ± 2.1 m/s,998.418 ± 0.84 kg/m3,1500.2 ± 2.1,994.987 ± 0.83 kg/m3,1486.3 ± 2.1 m/s,991.528 ± 0.83 kg/m3,1472.3 ± 2.1 m/s,988.035 ± 0.82 kg/m3,1458.3 ± 2.1 m/s,984.506 ± 0.82 kg/m3,–
OCc1ccccc1 [benzenemethanol],1525.2 ± 1.3,1041.22 ± 0.26 kg/m3,1509.3 ± 1.3 m/s,1037.35 ± 0.26 kg/m3,1493.6 ± 1.3,1033.47 ± 0.26 kg/m3,1478 ± 1.3 m/s,1029.58 ± 0.26 kg/m3,1462.6 ± 1.3 m/s,1025.67 ± 0.25 kg/m3,1447.3 ± 1.3 m/s,1021.75 ± 0.25 kg/m3,–
OCc1ccccc1 [benzenemethanol] + CCC(O)CO,–,–,–,–,–,–,–,–,–,–,–,–,"speed of sound ([2]; 298.15 K, x1 = 1): 1525.2 ± 1.3 m/s; mass density ([2]; 298.15 K, x1 = 1): 1041.22 ± 0.26 kg/m3; speed of sound ([2]; 303.15 K, x1 = 1): 1509.3 ± 1.3 m/s; mass density ([2]; 303.15 K, x1 = 1): 1037.35 ± 0.26 kg/m3; speed of sound ([2]; 308.15 K, x1 = 1): 1493.6 ± 1.3 m/s; mass density ([2]; 308.15 K, x1 = 1): 1033.47 ± 0.26 kg/m3; speed of sound ([2]; 313.15 K, x1 = 1): 1478 ± 1.3 m/s; mass density ([2]; 313.15 K, x1 = 1): 1029.58 ± 0.26 kg/m3; speed of sound ([2]; 318.15 K, x1 = 1): 1462.6 ± 1.3 m/s; mass density ([2]; 318.15 K, x1 = 1): 1025.67 ± 0.25 kg/m3; speed of sound ([2]; 323.15 K, x1 = 1): 1447.3 ± 1.3 m/s; mass density ([2]; 323.15 K, x1 = 1): 1021.75 ± 0.25 kg/m3"
CCC(C)O (stereo not drawn) [butan-2-ol] + CCC(O)CO,–,–,–,–,–,–,–,–,–,–,–,–,"speed of sound ([2]; 298.15 K, x2 = 0): 1212.7 ± 1.2 m/s; mass density ([2]; 298.15 K, x2 = 0): 803.103 ± 0.24 kg/m3; speed of sound ([2]; 303.15 K, x2 = 0): 1194.5 ± 1.2 m/s; mass density ([2]; 303.15 K, x2 = 0): 798.891 ± 0.24 kg/m3; speed of sound ([2]; 308.15 K, x2 = 0): 1176.2 ± 1.2 m/s; mass density ([2]; 308.15 K, x2 = 0): 794.588 ± 0.24 kg/m3; speed of sound ([2]; 313.15 K, x2 = 0): 1157.9 ± 1.2 m/s; mass density ([2]; 313.15 K, x2 = 0): 790.191 ± 0.24 kg/m3; speed of sound ([2]; 318.15 K, x2 = 0): 1139.5 ± 1.2 m/s; mass density ([2]; 318.15 K, x2 = 0): 785.692 ± 0.24 kg/m3; speed of sound ([2]; 323.15 K, x2 = 0): 1121 ± 1.2 m/s; mass density ([2]; 323.15 K, x2 = 0): 781.09 ± 0.24 kg/m3"

# Continued, in another order:
speed of sound ([1]; 298.15 K) [m/s],mass density ([1]; 298.15 K),speed of sound ([1]; 303.15 K),mass density ([1]; 303.15 K),speed of sound ([1]; 308.15 K) [m/s],mass density ([1]; 308.15 K),speed of sound ([1]; 313.15 K),mass density ([1]; 313.15 K),speed of sound ([1]; 318.15 K),mass density ([1]; 318.15 K),speed of sound ([1]; 323.15 K),mass density ([1]; 323.15 K),SMILES,other results
1526.1 ± 1.3,1016.14 ± 0.24 kg/m3,1510.5 ± 1.3 m/s,1012.39 ± 0.24 kg/m3,1494.7 ± 1.3,1008.61 ± 0.24 kg/m3,1479.2 ± 1.3 m/s,1004.75 ± 0.23 kg/m3,1463.2 ± 1.3 m/s,1000.93 ± 0.23 kg/m3,1447.7 ± 1.3 m/s,997.075 ± 0.23 kg/m3,OCCc1ccccc1 [2-phenylethanol],–
1212.7 ± 1.2,803.103 ± 0.24 kg/m3,1194.5 ± 1.2 m/s,798.891 ± 0.24 kg/m3,1176.2 ± 1.2,794.588 ± 0.24 kg/m3,1157.9 ± 1.2 m/s,790.191 ± 0.24 kg/m3,1139.5 ± 1.2 m/s,785.692 ± 0.24 kg/m3,1121 ± 1.2 m/s,781.09 ± 0.24 kg/m3,CCC(C)O (stereo not drawn) [butan-2-ol],–
